Structures can show the parent of a compound that is named as a salt. Where two headings read alike, the source gives them in different places. Marks after values point to notes of the source that are not given here.
Columns and labels:
[1] = In vitro biotransformation rate, rainbow trout liver S9 (OECD TG 319); type: in vitro ADME
Description: In brief, rainbow trout liver S9 homogenate was preincubated in buffer and cofactors, followed by 120 min of incubation with bisphenol. From each duplicate, 50 μL of subsamples was taken at timepoints 0, 2, 5, 15, 30, 60, 90, and 120 min and mixed with 200 μL of ice-cold methanol. The protocol of the procedure is described further in Section 2.
1042. Biotransformation rate estimation methodology
106Trinova Biochem; Lot: 180216) was pre-incubated at 11°C in K 2HPO4/KH2PO4 buffer
107(pH=7.8; 1 mL final volume) containing alamethicin from Trichoderma viride (25 μg/mL), and
108cofactors NADPH (2 mM), UDPGA (2 mM), GSH (5 mM), and PAPS (0.1 mM). After 10 min
109of preincubation, biotransformation was started by adding 5 µL of bisphenol test compound
110dissolved in methanol (1 µM final concentration). […]

ER = conditions: known from literature, no reference given; cited from earlier work
Estrogen receptor (ER) [2] = target: Estrogen receptor (ER); design: method as in Tox21; conditions: ATG Era Trans up assay; ref Tox21; cited from earlier work
Estrogen receptor (ER) [3] = target: Estrogen receptor (ER); design: method as in Tox21; conditions: ATG ERE CIS up assay; ref Tox21; cited from earlier work
zebrafish [4] = conditions: cited from earlier work
[5] = hepatocytes; cited from earlier work
[6] = cited from earlier work
UGT1A1 = test system: UGT1A1; design: method as in Wang et al. 64; conditions: single isolated enzyme; ref Wang et al. 64; cited from earlier work
zebrafish [7] = conditions: female, observed, ref Chen et al. 43, cited from earlier work
[8] = cited from earlier work; remark: listed apart in the source
Estrogen receptor (ER) [9] = target: Estrogen receptor (ER); design: method as in Kitamura et al. 2005; conditions: ERE-luciferase reporter assay, MCF-7 cells; ref Kitamura et al. 2005; cited from earlier work
[10] = cited from earlier work; remark: listed apart in the source
zebrafish [11] = conditions: cited from earlier work; remark: listed apart in the source
zebrafish [12] = test system: zebrafish; design: method as in Nyholm et al. 46; conditions: female, observed, ref Nyholm et al. 46, cited from earlier work
zebrafish [13] = test: PBTK parameter fitting (Nelder–Mead algorithm) to in vivo zebrafish data; design: species or system zebrafish (Danio rerio); conditions: fitted on egg TBBPA concentrations, 100 nmol/g feed (Nyholm et al.)
Description: Ovaries and eggs were assumed to receive the same blood flow. The equation for the egg compartment was described as follows using the diffusion-limited equation previously described by Thompson and Beard[51] [drawing 4] 4 where dAegg/dt represents the rate of change of bisphenol over time in the egg compartment, Agon and Aegg represent the amount of compound in the gonads and egg, respectively, Vgon and Vegg are the volumes of the gonads and eggs, respectively, and Pgon and Pegg are the partition coefficients of the gonads to blood and egg to gonads.
Parameter fitting was done in R using the modFit function in the FME package with the Nelder–Mead algorithm.[53]
279For fitting, the model was run using the exposure scenarios of each fitting data set.
280parameters were fixed as presented in Tables S10-S14 with exception of the parameter for
281which fitting was performed. The outcome evaluated by fitting algorithm was the concentration
282over time in the same tissue as the experimental data. Outcomes used for fitting to measured
283experimental data were: concentration in brain for brain-blood partition coefficient,
284concentration in liver for liver-blood partition coefficient, concentration in eggs for egg-gonad
285partition coefficient and whole-body metabolite concentration for Ke bile and KBG of metabolites.
286For the liver, brain and egg partitioning, the range was set between 0.01 and 500 and the Nelder-
287Mead algorithm was run with initial estimates at 1, 5, 10, 50 and 500 in order to assure a global
288minimum was found. The fitted values returning the lowest squared sum of residuals were used
The GI lumen to GI tract diffusion rate (K u)

[14] = from measured S9 clearance, transformed as suggested by Nichols et al.
[15] = in vitro incubation with rainbow trout liver S9, assuming 163 mg S9 protein/g liver
[16] = measured values, ref Grumetto et al 2019
[17] = metabolite, Female, whole body, Observed, ref Shi et al. 2016
[18] = metabolite, Male, whole body, Observed, ref Shi et al. 2016
[19] = cells marked g, ref Staples et al. 1998
[20] = metabolite, Female, whole body, Observed, ref Lindholst et al. 2003
[21] = measured human values, ref CompTox Dashboard
[22] = 20 μg/L, female, liver, observed, ref Shi et al. 47
[23] = 20 μg/L, female, ovaries, observed, ref Shi et al. 47
[24] = 20 μg/L, female, whole body, observed, ref Shi et al. 47
[25] = 20 μg/L, male, liver, observed, ref Shi et al. 47
[26] = 20 μg/L, male, testes, observed, ref Shi et al. 47
[27] = 20 μg/L, male, whole body, observed, ref Shi et al. 47

Compound: Cc1cc(C(C)(C)c2ccc(O)c(C)c2)ccc1O [BPC, bisphenol C]
- CL ([1]; both series combined): 1.03 mL/(h x mg)
- CLin vivo,int (in vivo intrinsic clearance) [1, 14]: 60.6 L/d/Kg fish
- CL (clearance rate) [1, 15]: 4.04 × 10^3 mL/d/g liver
- CL ([1]; series 1 (s1)): 1.01 mL/(h x mg)
- k (first-order disappearance rate constant) ([1]; series 1 (s1)): 1.03 h⁻¹
- CL ([1]; series 2 (s2)): 1.05 mL/(h x mg)
- k (first-order disappearance rate constant) ([1]; series 2 (s2)): 1.05 h⁻¹

Compound: CC(C)(C)c1cc(Cc2cc(C(C)(C)C)c(O)c(C(C)(C)C)c2)cc(C(C)(C)C)c1O [Bimox M]
- CL (in vitro rainbow trout clearance rate) [1]: 0 ml/d/g liver
- metabolic degradation [1]: no metabolic degradation
- CL (clearance rate) ([1]; 163 mg): 0 mL/d/g liver
- CLin vivo,int (in vivo intrinsic clearance) ([1]; s9): 0 L/d/Kg fish
- ER activity (ER): inactive on the ER

Compound: CC(c1ccccc1)(c1ccc(O)cc1)c1ccc(O)cc1 [BPAP, bisphenol AP]
- EC50 (Estrogen receptor (ER) [2]): 120 nM
- CL ([1]; both series combined): 1.80 mL/(h x mg)
- CLin vivo,int (in vivo intrinsic clearance) [1, 14]: 106 L/d/Kg fish
- CL (clearance rate) [1, 15]: 7.06 × 10^3 mL/d/g liver
- CL ([1]; series 1 (s1)): 1.79 mL/(h x mg)
- k (first-order disappearance rate constant) ([1]; series 1 (s1)): 1.73 h⁻¹
- CL ([1]; series 2 (s2)): 1.82 mL/(h x mg)
- k (first-order disappearance rate constant) ([1]; series 2 (s2)): 1.74 h⁻¹
- EC50 (Estrogen receptor (ER) [3]): 290 nM

Compound: CC(C)(c1ccc(O)cc1)c1ccc(OS(=O)(=O)O)cc1 [BPA sulfate]
- concentrations relative to those of the glucuronide (zebrafish [4]; zebrafish, in vivo): 1000 times lower

Compound: O=C(c1ccc(O)cc1O)c1ccc(O)cc1O [BP-2, benzophenone 2]
- CL (human clearance rate) [5]: 1.41*105 ml/d/g liver
- Funbound (plasma fraction unbound) ([6]; human, plasma): 0.035
- EC50 (Estrogen receptor (ER) [2]): 620 nM
- CL (clearance rate) ([1]; 163 mg): 5.79 × 10^4 mL/d/g liver
- CLin vivo,int (in vivo intrinsic clearance) ([1]; s9): 869 L/d/Kg fish
- EC50 (Estrogen receptor (ER) [3]): 620 nM

Compound: CC(C)(c1ccc(O)cc1)c1ccc(O)cc1 [BPA, Bisphenol A]
- CL (human clearance rate) [5]: 1.46*105 ml/d/g liver
- BCF (zebrafish [4]; 97.5 μg/L, gender not specified, whole body, observed, ref Lindholst et al. 39): 6.46
- t1/2 (zebrafish [4]; zebrafish, in vivo): 4.47 days
- Funbound (plasma fraction unbound) ([6]; plasma): 0.035
- UGT1A1 activity (UGT1A1): 5.19 pmol/min/mg protein
- CLin vivo,int (in vivo intrinsic clearance) [1, 14]: 36.7 L/d/Kg fish
- BCF (zebrafish [7]; 1.94 μg/L, liver): 201
- BCF (zebrafish [7]; 1.94 μg/L, ovaries): 10.3
- BCF (zebrafish [7]; 5.72 μg/L, liver): 199
- BCF (zebrafish [7]; 5.72 μg/L, ovaries): 21.0
- BCF (zebrafish [7]; 5.72 μg/L, whole body): 19.2
- log Kow ([8]; ref Staples et al. 67): 3.42 ^f

Compound: O=S(=O)(c1ccc(O)cc1)c1ccc(O)cc1 [BPS, bisphenol S]
- EC50 (Estrogen receptor (ER) [2]): 800 nM
- EC50 (Estrogen receptor (ER) [9]): 1100 nM
- k (first-order disappearance rate constant) ([1]; series 1 (s1)): 0.41 h⁻¹
- k (first-order disappearance rate constant) ([1]; series 2 (s2)): 0.48 h⁻¹
- EC50 (Estrogen receptor (ER) [3]): 1420 nM

Compound: Oc1ccc(Cc2ccc(O)cc2)cc1 [BPF, bisphenol F]
- EC50 (Estrogen receptor (ER) [2]): 950 nM
- EC50 (Estrogen receptor (ER) [9]): 1000 nM
- Ratio blood-plasma [10, 16]: 1.41
- CL ([1]; both series combined): 0.31 mL/(h x mg)
- CLin vivo,int (in vivo intrinsic clearance) [1, 14]: 18.0 L/d/Kg fish
- CL (clearance rate) [1, 15]: 1.20 × 10^3 mL/d/g liver
- CL ([1]; series 1 (s1)): 0.31 mL/(h x mg)
- k (first-order disappearance rate constant) ([1]; series 1 (s1)): 0.31 h⁻¹
- CL ([1]; series 2 (s2)): 0.30 mL/(h x mg)
- k (first-order disappearance rate constant) ([1]; series 2 (s2)): 0.31 h⁻¹
- log Kow ([8]; measured value, ref CompTox Dashboard): 2.91 ^h
- EC50 (Estrogen receptor (ER) [3]): 780 nM

Compound: O=C(O)[C@H]1O[C@@H](Oc2ccc(C(c3ccc(O)cc3)(C(F)(F)F)C(F)(F)F)cc2)[C@H](O)[C@@H](O)[C@@H]1O [BPAF-GA, BPAF glucuronic acid]
- AUC (zebrafish [11]; [17]): 6.54 µg/g/day
- Cmax (zebrafish [11]; [17]): 1.09 µg/g
- AUC (zebrafish [11]; [18]): 3.54 µg/g/day
- Cmax (zebrafish [11]; [18]): 0.60 µg/g
- Ratio blood-plasma [10, 19]: 1.00

Compound: BPA glucuronic acid [BPA-GA]
- AUC (zebrafish [4]; [20]): 109 µg/g/day
- Cmax (zebrafish [4]; [20]): 16.2 µg/g
- t1/2 (zebrafish [4]; [20]): 8.16 days
- Ratio blood-plasma [10, 19]: 1.00

Compound: CCC(C)(c1ccc(O)cc1)c1ccc(O)cc1 [BPB, bisphenol B]
- Funbound (plasma fraction unbound) [6, 21]: 0.018
- EC50 (Estrogen receptor (ER) [2]): 130 nM
- EC50 (Estrogen receptor (ER) [9]): 70 nM
- Ratio blood-plasma [10, 16]: 1.04
- CL ([1]; both series combined): 0.96 mL/(h x mg)
- CLin vivo,int (in vivo intrinsic clearance) [1, 14]: 56.4 L/d/Kg fish
- CL (clearance rate) [1, 15]: 3.76 × 10^3 mL/d/g liver
- CL ([1]; series 1 (s1)): 0.92 mL/(h x mg)
- k (first-order disappearance rate constant) ([1]; series 1 (s1)): 0.95 h⁻¹
- CL ([1]; series 2 (s2)): 1.00 mL/(h x mg)
- k (first-order disappearance rate constant) ([1]; series 2 (s2)): 0.99 h⁻¹
- EC50 (Estrogen receptor (ER) [3]): 170 nM

Compound: Oc1ccc(C(c2ccc(O)cc2)(C(F)(F)F)C(F)(F)F)cc1 [BPAF, bisphenol AF]
- AUC (zebrafish [11]; [22]): 1.38 µg/g/day
- BCF (zebrafish [11]; [22]): 11.9
- Cmax (zebrafish [11]; [22]): 0.24 µg/g
- t1/2 (zebrafish [11]; [22]): 8.52 days
- AUC (zebrafish [11]; [23]): 1.50 µg/g/day
- BCF (zebrafish [11]; [23]): 10.9
- Cmax (zebrafish [11]; [23]): 0.22 µg/g
- t1/2 (zebrafish [11]; [23]): 7.92 days
- AUC (zebrafish [11]; [24]): 0.8 µg/g/day
- BCF (zebrafish [11]; [24]): 7.04
- Cmax (zebrafish [11]; [24]): 0.14 µg/g
- t1/2 (zebrafish [11]; [24]): 4.99 days
- AUC (zebrafish [11]; [25]): 4.93 µg/g/day
- BCF (zebrafish [11]; [25]): 40.5
- Cmax (zebrafish [11]; [25]): 0.81 µg/g
- t1/2 (zebrafish [11]; [25]): 25.4 days
- AUC (zebrafish [11]; [26]): 3.23 µg/g/day
- BCF (zebrafish [11]; [26]): 27.5
- Cmax (zebrafish [11]; [26]): 0.55 µg/g
- t1/2 (zebrafish [11]; [26]): 0.85 days
- AUC (zebrafish [11]; [27]): 1.25 µg/g/day
- BCF (zebrafish [11]; [27]): 9.80
- Cmax (zebrafish [11]; [27]): 0.20 µg/g
- t1/2 (zebrafish [11]; [27]): 3.58 days
- Funbound (plasma fraction unbound) [6, 21]: 0.010
- CL ([1]; both series combined): 0.78 mL/(h x mg)
- CLin vivo,int (in vivo intrinsic clearance) [1, 14]: 45.5 L/d/Kg fish
- CL (clearance rate) [1, 15]: 3.04 × 10^3 mL/d/g liver
- CL ([1]; series 1 (s1)): 0.75 mL/(h x mg)
- k (first-order disappearance rate constant) ([1]; series 1 (s1)): 0.73 h⁻¹
- CL ([1]; series 2 (s2)): 0.80 mL/(h x mg)
- k (first-order disappearance rate constant) ([1]; series 2 (s2)): 0.78 h⁻¹

Compound: CC(C)(c1cc(Br)c(O)c(Br)c1)c1cc(Br)c(O)c(Br)c1 [TBBPA, tetrabromobisphenol A]
- Funbound (plasma fraction unbound) [6, 21]: 0.001
- AUC (zebrafish [12]; 10 nmol/g feed, egg): 0.017 µg/g/day
- Cmax (zebrafish [12]; 10 nmol/g feed, egg): 0.001 µg/g
- AUC (zebrafish [12]; 10 nmol/g feed, whole body): 0.291 µg/g/day
- Cmax (zebrafish [12]; 10 nmol/g feed, whole body): 0.015 µg/g
- AUC (zebrafish [12]; 100 nmol/g feed, egg): 0.118 µg/g/day
- Cmax (zebrafish [12]; 100 nmol/g feed, egg): 0.004 µg/g
- parent compound metabolized when levels stopped decreasing ([1]; after 15 min of incubation, both repetitions): ~70%
- CL ([1]; both series combined): 4.18 mL/(h x mg)
- CLin vivo,int (in vivo intrinsic clearance) [1, 14]: 245 L/d/Kg fish
- CL (clearance rate) [1, 15]: 1.63 × 10^4 mL/d/g liver
- CL ([1]; series 1 (s1)): 3.90 mL/(h x mg)
- k (first-order disappearance rate constant) ([1]; series 1 (s1)): 3.95 h⁻¹
- CL ([1]; series 2 (s2)): 4.45 mL/(h x mg)
- k (first-order disappearance rate constant) ([1]; series 2 (s2)): 4.38 h⁻¹
- Ku (diffusion coefficient from GI lumen into GI tract) (zebrafish [13]): 8.40
- Pegg (egg-gonad partition coefficient) (zebrafish [13]; used for all bisphenols): 1.58
- log Kow ([8]; measured value, ref Kuramochi et al. 68): 6.53 ^i
